Measured values published in ChEMBL document CHEMBL2390850, “New azole antagonists with high affinity for the P2Y(1) receptor” (Bioorg Med Chem Lett, 2013).

Tests used:
P2Y purinoceptor 1 = P2Y purinoceptor 1 (Homo sapiens, UniProt P47900); assay: Displacement of [beta-33P]-2MeS-ADP from human P2Y1 receptor expressed in HEK293 cells after 1 hr by scintillation counting analysis; assay type: cell-based
[1] = Antiplatelet activity in human platelet-rich plasma assessed as inhibition of ADP-induced platelet aggregation; assay type: functional, cell-free
[2] = Solubility of the compound at pH 6.5; assay type: physicochemical; details: buffer
[3] = Lipophilicity, log P of the compound by HPLC analysis; assay type: physicochemical
[4] = Plasma protein binding in human; assay type: ADME, cell-free; details: read-out: PPB (converted)
[5] = Antiplatelet activity in human platelet-rich plasma assessed as inhibition of ADP-induced platelet aggregation relative to untreated control; assay type: functional

Sequence of P2Y purinoceptor 1 (P47900 whole entry): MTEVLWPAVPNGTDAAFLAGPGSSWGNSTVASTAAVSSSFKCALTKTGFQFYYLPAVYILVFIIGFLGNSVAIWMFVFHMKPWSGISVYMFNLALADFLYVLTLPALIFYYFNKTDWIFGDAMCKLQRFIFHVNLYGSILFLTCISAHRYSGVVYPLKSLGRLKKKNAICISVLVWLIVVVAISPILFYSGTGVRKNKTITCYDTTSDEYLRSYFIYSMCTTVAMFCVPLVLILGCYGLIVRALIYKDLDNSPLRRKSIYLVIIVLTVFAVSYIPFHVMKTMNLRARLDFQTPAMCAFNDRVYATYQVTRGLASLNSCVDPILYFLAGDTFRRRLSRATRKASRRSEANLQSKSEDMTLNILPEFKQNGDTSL

| Ki (P2Y purinoceptor 1) | Compound | also measured |
| --- | --- | --- |
| 670 nM | CN(C)Cc1cccc(-c2nnc(Nc3cccnc3Oc3ccccc3C(C)(C)C)s2)c1 | – |
| 18 nM | CC(C)(C)c1ccccc1Oc1ncccc1Nc1nnc(-c2ccc3ccccc3c2)s1 | – |
| 7 nM | CC(C)(C)c1ccccc1Oc1ncccc1Nc1nnc(-c2ccc(C(F)(F)F)cc2)s1 | IC50 [1]: 7500 nM; solubility [2]: < 1 µg/mL; logP [3]: 6 |
| 70 nM | CC(C)(C)c1ccccc1Oc1ncccc1Nc1nnc(-c2ccccc2)o1 | – |
| 90 nM | CCOC(=O)c1nnc(Nc2cccnc2Oc2ccccc2C(C)(C)C)s1 | – |
| – | CC(C)(C)c1ccccc1Oc1ncccc1NC(=O)Nc1ccc(OC(F)(F)F)cc1 | fraction unbound [4]: 0.007 |
| 25 nM | CC(C)(C)c1ccccc1Oc1ncccc1Nc1nc(-c2ccccc2)ns1 | – |
| 250 nM | CN(C)Cc1ccc(-c2nnc(Nc3cccnc3Oc3ccccc3C(C)(C)C)s2)cc1 | – |
| 870 nM | CC(C)(C)c1ccccc1Oc1ncccc1Nc1cc(-c2ccccc2)n[nH]1 | – |
| 340 nM | CC(C)(C)c1ccccc1Oc1ncccc1Nc1nnc(-c2cccnc2)s1 | – |
| 59 nM | CC(C)(C)c1ccccc1Oc1ncccc1Nc1ncc(-c2ccccc2)o1 | – |
| 19 nM | CC(C)(C)c1ccccc1Oc1ncccc1Nc1cc(-c2ccccc2)on1 | – |
| 23 nM | CC(C)(C)c1ccccc1Oc1ncccc1Nc1cc(-c2ccccc2)no1 | – |
| > 36000 nM | Cn1nc(-c2ccccc2)cc1Nc1cccnc1Oc1ccccc1C(C)(C)C | – |
| 15 nM | CC(C)(C)c1ccccc1Oc1ncccc1NC(=O)Nc1ccc(C(F)(F)F)cc1 | IC50 [1]: 12600 nM |
| 10 nM | CC(C)(C)c1ccccc1Oc1ncccc1Nc1nnc(-c2ccc(OC(F)(F)F)cc2)s1 | – |
| 45 nM | Cn1nc(Nc2cccnc2Oc2ccccc2C(C)(C)C)cc1-c1ccccc1 | – |
| 1500 nM | CC(C)(C)c1ccccc1Oc1ncccc1Nc1nsc(-c2ccccc2)n1 | – |
| 55 nM | CN(C)c1cccc(-c2nnc(Nc3cccnc3Oc3ccccc3C(C)(C)C)s2)c1 | – |
| 27 nM | CN(C)c1ccc(-c2nnc(Nc3cccnc3Oc3ccccc3C(C)(C)C)s2)cc1 | – |
| 2730 nM | CC(C)(C)c1ccccc1Oc1ncccc1Nc1nncs1 | – |
| 2900 nM | CC(C)(C)c1ccccc1Oc1ncccc1Nc1nnc(C(=O)O)s1 | – |
| 275 nM | CC(C)(C)c1ccccc1Oc1ncccc1Nc1nnc(-c2ccncc2)s1 | IC50 [1]: 29000 nM |
| 15 nM | CC(C)(C)c1ccccc1Oc1ncccc1Nc1ncc(-c2ccccc2)s1 | logP [3]: 5.98 |
| 2500 nM | CC(C)(C)c1ccccc1Oc1ncccc1N=C1NCC(c2ccccc2)O1 (stereo not drawn) | – |
| 11 nM | CC(C)(C)c1ccccc1Oc1ncccc1Nc1nnc(-c2ccccc2)s1 | IC50 [1]: 13000 nM; logP [3]: 5.01 |
| 21 nM | CC(C)(C)c1ccccc1Oc1ncccc1Nc1nnc(-c2ccccn2)s1 | – |
| 410 nM | CC(C)(C)c1ccccc1Oc1ncccc1Nc1noc(-c2ccccc2)n1 | – |
| 41 nM | CC(C)(C)c1ccccc1Oc1ncccc1NC(=O)Nc1ccccc1 | inhibition (INH) [5]: 95% |
